Assay results reported in ChEMBL document CHEMBL3632589, “Investigation of 7-benzylidenenaltrexone derivatives as a novel structural antitrichomonal lead compound” (2015).
In brackets after ≈: the same amount, converted by molar mass.

tested on: Trichomonas vaginalis; assay: Antitrichomonal activity against Trichomonas vaginalis after 48 hrs by invert microscope analysis; type: functional

Question: With O=C1/C(=C/c2ccc(F)cc2)C[C@@]2(O)[C@H]3Cc4ccc(O)c5c4[C@@]2(CCN3CC2CC2)[C@H]1O5 as the compound, how does the MIC read?
Answer: 40 µM (≈ 17.9 µg/mL)

Question: For COc1ccc(/C=C2\C[C@@]3(O)[C@H]4Cc5ccc(O)c6c5[C@@]3(CCN4CC3CC3)[C@@H](O6)C2=O)cc1, which MIC is on record?
Answer: 20 µM (≈ 9.19 µg/mL)

Question: CC1(C)SSC(C)(C)[C@@H](NC(=O)[C@@H](N)Cc2ccc(O)cc2)C(=O)NCC(=O)N[C@@H](Cc2ccccc2)C(=O)N[C@H]1C(=O)O was tested. Which MIC did it give?
Answer: > 320 µM

Question: For CN(C)c1ccc(/C=C2\C[C@@]3(O)[C@H]4Cc5ccc(O)c6c5[C@@]3(CCN4CC3CC3)[C@@H](O6)C2=O)cc1, which MIC is on record?
Answer: 20 µM (≈ 9.45 µg/mL)

Question: With O=C1/C(=C/c2ccccc2)C[C@@]2(O)[C@H]3Cc4ccc(O)c5c4[C@@]2(CCN3CC2CC2)[C@H]1O5 [BNTX] as the compound, how does the MIC read?
Answer: 40 µM (≈ 17.2 µg/mL)

Question: How did the MIC turn out when CC(C)[C@H](NC(=O)[C@H](CCC(=O)O)NC(=O)[C@H](Cc1ccccc1)NC(=O)[C@@H](C)NC(=O)[C@@H](N)Cc1ccc(O)cc1)C(=O)N[C@H](C(=O)NCC(N)=O)C(C)C [DELTORPHIN II] was run?
Answer: > 320 µM

Question: With Cc1ncc([N+](=O)[O-])n1CCO [METRONIDAZOLE] as the compound, how does the MIC read?
Answer: 5 µM (≈ 0.856 µg/mL)

Question: Oc1ccc2c3c1O[C@H]1c4[nH]c5ccccc5c4C[C@@]4(O)[C@@H](C2)N(CC2CC2)CC[C@]314 [NALTRINDOLE] was tested. Which MIC did it give?
Answer: 80 µM (≈ 33.2 µg/mL)

Question: For C=CCN1C[C@H](C)N([C@H](c2ccc(C(=O)N(CC)CC)cc2)c2cccc(OC)c2)C[C@H]1C [SNC-80], which MIC is on record?
Answer: > 320 µM
